Experimental data taken from US20110268789A1, “USE OF PITUITARY ADENYLATE CYCLASE-ACTIVATING POLYPEPTIDE (PACAP) AND PACAP ANALOGS AS ADJUNCTIVE TREATMENTS WITH ANTICANCER AGENTS” (priority 2008, published 2011).

Legend:
Male C57BL/6 mice = experiment: Cisplatin-induced nephrotoxicity in mice; format: in vivo, mouse; conditions: cisplatin 20 mg/kg i.p., FIG. 10
Protocol: (§1) Male C57BL/6 mice were given a single intraperitoneal injection of 20 mg/kg of cisplatin. Twenty nanomoles of PACAP38 were given intraperitoneally 1 hour before the injection of cisplatin and additional doses were given at 24 and 48 hours after the initial dose. The control group of mice was injected intraperitoneally with the same volume of saline as for the injections of cisplatin and PACAP38 on the same schedule. The mice were euthanized 24 hours after the final injection of PACAP38. Each value represents the mean plus/minus the standard error of four determinations. ***p<0.001 and **p<0.01 compared to the group treated only with cisplatin.
as §1, with “PACAP38. TNF-α was extracted from one kidney of each mouse and quantified with an enzyme-linked immunosorbent assay.” for “PACAP38.”
Male C57BL/6 mice were given a single intraperitoneal injection of 20 mg/kg of cisplatin. Twenty nanomoles of PACAP38 were given intraperitoneally 1 hour before the injection of cisplatin and additional doses were given at 24 and 48 hours after the initial dose. The control group of mice were injected intraperitoneally with the same volume of saline as for the injections of cisplatin and PACAP38 on the same schedule. The mice were euthanized 24 hours after the final injection of PACAP38, and the kidneys were removed and fixed in 10% formalin. The fixed sections were stained with hematoxylin and eosin. The sections of the kidneys from control mice show intact renal tubular epithelial cells and well-preserved brush border membranes. The kidneys from mice treated with cisplatin had extensive tubular damage, tubular dilations, intratubular debris, and intratubular casts. […] Tubular damage was more pronounced in the outer cortex in the cisplatin treated mice. The photomicrographs on the left side were made at a lower magnification (×160) than the photomicrographs on the right side (×320). The results described in FIGS. 5, 6, 7, and 8 were from the same experiment.
as §1, with “six” for “four”
as §1, with “The cytoprotective effect of PACAP38 against cisplatin-induced nephrotoxicity was also seen in a common in vivo model. Male” for “Male”, “PACAP38.” for “PACAP38. Each value represents the mean plus/minus the standard error of four determinations. ***p<0.001 and **p<0.01 compared to the group treated only with cisplatin.”

PAC1 receptor = target: T1, PAC1 receptor (Homo sapiens, UniProt P41586); conditions: cited from earlier work
T1 sequence (P41586 21-468): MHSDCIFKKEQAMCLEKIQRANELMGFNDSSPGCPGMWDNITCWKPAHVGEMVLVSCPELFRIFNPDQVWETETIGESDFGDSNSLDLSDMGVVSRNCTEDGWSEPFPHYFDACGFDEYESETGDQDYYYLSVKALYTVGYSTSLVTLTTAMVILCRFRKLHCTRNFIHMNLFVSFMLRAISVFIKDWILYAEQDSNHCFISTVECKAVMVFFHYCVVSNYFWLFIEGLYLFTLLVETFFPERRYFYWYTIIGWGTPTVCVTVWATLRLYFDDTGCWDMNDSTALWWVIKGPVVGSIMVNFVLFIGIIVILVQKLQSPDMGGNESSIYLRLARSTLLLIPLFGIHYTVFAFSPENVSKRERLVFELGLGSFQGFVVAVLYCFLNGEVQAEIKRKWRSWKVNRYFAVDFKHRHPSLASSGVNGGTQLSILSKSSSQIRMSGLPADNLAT

[1] = tested on: human erythroleukemia cells; experiment: Thalidomide-induced apoptotic cell death of erythroleukemia cells; format: cell-based; conditions: thalidomide 48 hours, FIG. 20
Protocol: The human myeloid leukemia cells were cultured in RPMI 1640 medium supplemented with 10% non-inactivated fetal bovine serum. The effects of PACAP38, [D-Ser^2]PACAP38 and VIP on apoptotic cell death was assessed by the quantitative determination of cytoplasmic histone-associated DNA-fragmentation (mono- and oligonucleosomes) after exposure to thalidomide for 48 hours. Each value represents the mean plus/minus the standard deviation of four determinations. **p<0.01 and *p<0.05 compared to the thalidomide-treated (control) cells.

In the case of VIP, the “relative potency as cytoprotectants against cisplatin-induced impairment of kidney function (serum creatinine)” value (Male C57BL/6 mice) is listed as “less potent”, the “affinity for the PAC1 receptor relative to PACAP” value (PAC1 receptor) is listed as 1,000 times less and the “effect on thalidomide-induced apoptotic cell death” value [1] is listed as “dose-dependent enhancement”.
